This note sets out measurements from ChEMBL document CHEMBL1150291, “Discovery of potent, orally bioavailable, selective 5-HT1A/B/D receptor antagonists” (J Med Chem, 2008).

A short description of data set [1]: Clearance in rat at 1 mg/kg, iv. The format is ADME, organism-based. The arrangement: dose 1 mg/kg, route intravenous. To be noted: in vivo.
Data set [2] is described as follows: Half life in rat at 1 mg/kg, iv. The settings on record: in vivo. In kind it is ADME, organism-based. Details: dose 1 mg/kg, route intravenous.
Data set [3] is described as follows: Volume of distribution at steady state in rat at 1 mg/kg, iv. In kind it is ADME, organism-based. The arrangement: dose 1 mg/kg, route intravenous. The settings on record: in vivo, read-out: Vdss.
A short description of data set [4]: Cmax in rat brain at 3 mg/kg, po. Details: dose 3 mg/kg, route oral. In kind it is ADME, organism-based.
For data set [5], the target named is T1, 5-hydroxytryptamine receptor 1B (Homo sapiens, UniProt P28222). Briefly: Displacement of [3H]5HT from human recombinant 5HT1B receptor relative to control. Background: In a radioligand displacement assay an active substance lowers the binding of a labelled ligand.
T1 sequence (P28222 whole entry): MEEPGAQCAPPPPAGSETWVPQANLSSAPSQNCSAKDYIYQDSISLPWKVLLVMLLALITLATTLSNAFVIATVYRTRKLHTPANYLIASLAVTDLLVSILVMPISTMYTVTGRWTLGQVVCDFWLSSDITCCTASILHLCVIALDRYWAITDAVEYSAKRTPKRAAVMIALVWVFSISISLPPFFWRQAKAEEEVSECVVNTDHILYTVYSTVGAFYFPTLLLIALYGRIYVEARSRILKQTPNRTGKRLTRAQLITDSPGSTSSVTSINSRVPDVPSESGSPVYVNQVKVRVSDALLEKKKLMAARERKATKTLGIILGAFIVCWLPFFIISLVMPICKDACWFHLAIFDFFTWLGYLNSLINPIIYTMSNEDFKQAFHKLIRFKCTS
The target of data set [6] is T2, 5-hydroxytryptamine receptor 1D (Homo sapiens, UniProt P28221). Nature of the data set: Displacement of [3H]5HT from human recombinant 5HT1D receptor relative to control.
T2 sequence (P28221 whole entry): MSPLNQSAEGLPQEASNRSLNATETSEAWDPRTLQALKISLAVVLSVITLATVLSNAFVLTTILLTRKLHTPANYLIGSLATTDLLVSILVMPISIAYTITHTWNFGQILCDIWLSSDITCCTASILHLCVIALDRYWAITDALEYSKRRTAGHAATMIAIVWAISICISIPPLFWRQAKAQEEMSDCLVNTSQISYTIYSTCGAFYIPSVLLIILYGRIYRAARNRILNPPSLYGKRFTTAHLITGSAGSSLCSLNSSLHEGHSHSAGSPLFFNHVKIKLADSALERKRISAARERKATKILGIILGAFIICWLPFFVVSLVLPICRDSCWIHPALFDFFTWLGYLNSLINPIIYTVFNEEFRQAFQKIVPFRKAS
Data set [7] addresses T3, 5-hydroxytryptamine receptor 1A (Homo sapiens, UniProt P08908).
T3 sequence (P08908 whole entry): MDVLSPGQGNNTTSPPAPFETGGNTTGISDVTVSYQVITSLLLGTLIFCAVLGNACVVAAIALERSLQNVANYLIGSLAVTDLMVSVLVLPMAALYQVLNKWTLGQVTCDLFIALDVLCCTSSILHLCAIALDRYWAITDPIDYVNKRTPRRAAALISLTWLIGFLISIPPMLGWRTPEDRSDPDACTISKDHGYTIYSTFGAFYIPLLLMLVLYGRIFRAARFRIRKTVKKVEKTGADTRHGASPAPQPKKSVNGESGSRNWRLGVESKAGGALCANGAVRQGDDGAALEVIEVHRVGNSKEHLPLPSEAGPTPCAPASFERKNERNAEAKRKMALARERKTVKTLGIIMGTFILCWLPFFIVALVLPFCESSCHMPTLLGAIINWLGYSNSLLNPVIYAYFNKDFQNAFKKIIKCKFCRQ

The target in data set [8] is T1, 5-hydroxytryptamine receptor 1B.
Data set [9] deals with T2, 5-hydroxytryptamine receptor 1D.
The target in data set [10] is Sodium-dependent serotonin transporter (Rattus norvegicus, UniProt P31652).
Sodium-dependent serotonin transporter, sequence (P31652 whole entry): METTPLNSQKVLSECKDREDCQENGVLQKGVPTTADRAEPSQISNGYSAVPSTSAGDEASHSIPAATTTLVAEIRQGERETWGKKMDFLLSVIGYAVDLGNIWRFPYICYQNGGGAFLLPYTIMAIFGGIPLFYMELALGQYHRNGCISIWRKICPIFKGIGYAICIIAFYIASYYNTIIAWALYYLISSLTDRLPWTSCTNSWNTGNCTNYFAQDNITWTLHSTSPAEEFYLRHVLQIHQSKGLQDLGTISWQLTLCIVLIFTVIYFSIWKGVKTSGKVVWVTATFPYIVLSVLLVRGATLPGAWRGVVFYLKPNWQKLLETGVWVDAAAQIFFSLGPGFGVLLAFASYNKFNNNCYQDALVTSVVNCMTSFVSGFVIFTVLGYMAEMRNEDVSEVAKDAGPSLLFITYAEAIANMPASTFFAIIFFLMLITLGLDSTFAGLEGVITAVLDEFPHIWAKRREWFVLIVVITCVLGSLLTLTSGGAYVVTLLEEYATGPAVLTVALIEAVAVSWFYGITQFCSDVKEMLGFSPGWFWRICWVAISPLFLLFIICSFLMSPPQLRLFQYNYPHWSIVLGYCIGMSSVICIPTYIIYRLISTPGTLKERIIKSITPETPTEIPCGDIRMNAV
Description: Inhibition of [3H]5HT uptake at SERT in rat cortical synaptosomes
Data set [11] has as its target T3, 5-hydroxytryptamine receptor 1A. This is another data set of the same source.
Data set [12] can be described thus: Ratio of drug level in brain to blood in rat at 3 mg/kg, po. The format is ADME, organism-based. Details: dose 3 mg/kg, route oral. The settings on record: read-out: BBR.
The test system of a further data set is Rattus norvegicus. Briefly: Reversal of SKF-99101-induced increase in seizure threshold in orally dosed rat by electroshock threshold test. In kind it is functional. To be noted: po.

By clearance is commonly meant a measure of how efficiently the substance is removed, as volume per time. A lower clearance goes with inefficient removal. A word on the half-life: it is the time needed for the level to fall by half in the phase considered. Lower therefore signals fast loss. What is called Cmax is the highest concentration seen after dosing. For orientation: Ki means a dissociation constant, usually derived from enzyme kinetics or from competition with a known ligand. As to `CC(=O)N(C)c1cccc(CC2CCN(CCOc3cccc4nc(C)ccc34)CC2)c1`, in data set [1], the clearance was 37 mL/min/kg. The half-life in data set [2] was 1.2 h. Further, the Vd in data set [3] was found to be 2.2 L/kg. The molecule also had a Cmax in data set [4] of 190 ng/g. The Intrinsic activity in data set [5] came to 0.3; in [6] it was 0.6. For the same molecule, the Ki in data set [7] was 25.1 nM; in data set [8], 39.8 nM; in data set [9] it was 1.26 nM; in data set [10], 79.4 nM.
Consider `COc1cccc(CN2CCN(CCOc3cccc4nc(C)ccc34)CC2)c1`, for which the inhibitory constant (Ki) in data set [11] was 12.6 nM; in data set [8] it was 158 nM; in data set [9], 2.51 nM; in [10] it was 631 nM.
As for `Cc1ccc2c(OCCN3CCC(Cc4cccc(NS(=O)(=O)C(C)C)c4)CC3)cccc2n1`, the values for the Intrinsic activity in [5] and in data set [6] were 0.3 and 0.4, respectively. Moreover, the Ki was 2.51 nM in [7], 1.26 nM in [8], 0.398 nM in data set [9] and 398 nM in data set [10].
For `Cc1ccc2c(OCCN3CCC(Cc4cccc(NC(=O)C(C)C)c4)CC3)cccc2n1`, the clearance in [1] was 45 mL/min/kg. In data set [2], this molecule showed a half-life of 0.9 h. For the same molecule, in data set [12], the Kp came out at 2.3. Moreover, the Vd in data set [3] is 1.8 L/kg. In [4], this molecule showed a Cmax of 175 ng/g. For the same molecule, the Intrinsic activity amounted to 0.3 in data set [5] and 0.4 in data set [6]. Also, the Ki in [7] is 6.31 nM; in data set [8], 50.1 nM; in data set [9] it was 1.26 nM; in data set [10] it was 501 nM.
`Cc1ccc2c(OCCN3CCN(Cc4ccccc4)CC3)cccc2n1`: the Ki in [11] was 25.1 nM; in data set [7] it was 200 nM; in data set [8], 251 nM; in [9] it was 1 nM; in data set [10], 794 nM.
Consider `CC(=O)N(C)c1cccc(CN2CCN(CCOc3cccc4nc(C)ccc34)CC2)c1`, for which the Ki in data set [7] is 251 nM; in data set [8] it was 50.1 nM; in data set [9] it was 0.316 nM; in data set [10], 1000 nM.
Turning to `CC(=O)Nc1ccccc1CN1CCN(CCOc2cccc3nc(C)ccc23)CC1`, the Ki is 1260 nM in data set [7], 1580 nM in [8], 5.01 nM in [9] and 10000 nM in data set [10].
In turn, `CCN(C(C)=O)c1cccc(CC2CCN(CCOc3cccc4nc(C)ccc34)CC2)c1` displayed a clearance in [1] of 34 mL/min/kg. The half-life in data set [2] was 1.1 h. For the same molecule, the Vd in data set [3] is 1.9 L/kg. For the same molecule, the Cmax in data set [4] worked out at 234 ng/g. Also, the Intrinsic activity came to 0.3 in data set [5] and 0.6 in data set [6]. In addition, the Ki in data set [7] was 5.01 nM; in [8], 100 nM; in data set [9], 1.58 nM; in data set [10], 794 nM.
On to `CC(=O)Nc1ccc(CN2CCN(CCOc3cccc4nc(C)ccc34)CC2)cc1`, for which the Ki in [11] was 158 nM; in data set [8], 1260 nM; in data set [9], 200 nM; in data set [10], 1580 nM.
Molecule `Cc1ccc2c(OCCN3CCC(Cc4cccc(N5CCCC5=O)c4)CC3)cccc2n1` registered a clearance in [1] of 35 mL/min/kg. The molecule further showed a half-life in data set [2] of 1.3 h. Also, in data set [12], the Kp worked out at 1.2. Also, in data set [3], the Vd worked out at 1.5 L/kg. Further, the Cmax in [4] worked out at 410 ng/g. The results for the Intrinsic activity in data set [5] and in data set [6] were 0.4 and 0.5, respectively. In addition, the Ki was 6.31 nM in [7], 20 nM in [8], 2 nM in [9] and 200 nM in data set [10].
For the molecule `CC(=O)Nc1cccc(CN2CCN(CCOc3cccc4nc(C)ccc34)CC2)c1`, the Ki in [11] was 2 nM; in data set [7], 200 nM; in data set [8], 20 nM; in data set [9], 0.501 nM; in data set [10], 1260 nM.
Regarding `CC(=O)Nc1cccc(CC2CCN(CCOc3cccc4nc(C)ccc34)CC2)c1`, the clearance in data set [1] was determined as 47 mL/min/kg. Further, the half-life in data set [2] is 0.6 h. Further, in data set [12], the Kp was found to be 1.1. Moreover, the Vd in [3] is 1.2 L/kg. Moreover, the Cmax in data set [4] stood at 221 ng/g. In addition, the results for the Intrinsic activity in data set [5] and in [6] were 0.3 and 0.5, respectively. For the same molecule, the Ki is 25.1 nM in [7], 20 nM in data set [8], 0.501 nM in data set [9] and 501 nM in [10].
Regarding `CCC(=O)Nc1cccc(CC2CCN(CCOc3cccc4nc(C)ccc34)CC2)c1`, the Intrinsic activity in data set [5] and in data set [6] was 0.3 each time. In addition, the Ki was 25.1 nM in data set [7], 15.8 nM in data set [8], 0.631 nM in [9] and 794 nM in data set [10].
Regarding `CCNC(=O)Nc1cccc(CC2CCN(CCOc3cccc4nc(C)ccc34)CC2)c1`, the Intrinsic activity was determined as 0.2 in data set [5] and 0.3 in data set [6]. Further, the Ki is 31.6 nM in [7], 25.1 nM in data set [8], 0.251 nM in data set [9] and 251 nM in data set [10].
The ED50 is the dose at which the effect has come halfway, by size or by number of responders. With `Cc1nc(-c2ccc(-c3ccc(C(=O)N4CCc5cc6c(cc54)C4(CCN(C)CC4)CO6)cc3)c(C)c2)no1` [SB-224289], the ED50 with Rattus norvegicus came to 1 mg/kg.
For `COc1ccc(CN2CCN(CCOc3cccc4nc(C)ccc34)CC2)cc1`, the Ki in data set [11] was 5.01 nM; in data set [7] it was 50.1 nM; in data set [8], 501 nM; in [9] it was 12.6 nM; in [10], 398 nM.
Turning to `COc1ccc(CC2CCN(CCOc3cccc4nc(C)ccc34)CC2)cc1NS(C)(=O)=O`, the Ki was 126 nM in [7], 39.8 nM in [8], 6.31 nM in [9] and 631 nM in [10].
As to `Cc1ccc2c(OCCN3CCC(Cc4cccc(NC(=O)CN(C)C)c4)CC3)cccc2n1`, the Intrinsic activity was found to be 0.2 in [5] and 0.4 in [6]. Further, the inhibition constant Ki in [7] was 15.8 nM; in data set [8], 6.31 nM; in data set [9], 1 nM; in data set [10] it was 398 nM.
Regarding `Cc1ccc2c(OCCN3CCC(Cc4cccc(N(C)S(C)(=O)=O)c4)CC3)cccc2n1`, the Intrinsic activity in [5] amounted to 0; in data set [6] it was 0.5. Besides, the Ki is 12.6 nM in [7], 12.6 nM in data set [8], 1.58 nM in data set [9] and 1000 nM in [10].
